Reference: the CheMixHub viscosity set

Assay: xn = mol fraction of the nth substance listed

O=[N+]([O-])[O-].[Ag+] + Nc1cccc(Cl)c1
298.15 K, 101 kPa
Conditions | viscosity [mPa·s]
x1 = 0.00059 | 3.52
x1 = 0.0014 | 3.57
x1 = 0.00381 | 3.67
x1 = 0.008857 | 3.92
x1 = 0.02337 | 4.83
x1 = 0.06044 | 9.18

CC[N+](=O)[O-] + CC(C)O
viscosity [mPa·s], 101.33 kPa
Conditions | 293.15 K | 303.15 K | 313.15 K
x2 = 0.0501 | 0.68 | 0.605 | 0.536
x2 = 0.1 | 0.672 | 0.595 | 0.53
x2 = 0.15 | 0.671 | 0.592 | 0.526
x2 = 0.2 | 0.678 | 0.594 | 0.526
x2 = 0.25 | 0.698 | 0.601 | 0.53
x2 = 0.3 | 0.707 | 0.613 | 0.538
x2 = 0.35 | 0.729 | 0.628 | 0.546
x2 = 0.4 | 0.766 | 0.647 | 0.559
x2 = 0.4501 | 0.8 | 0.67 | 0.576
x2 = 0.5 | 0.827 | 0.697 | 0.597
x2 = 0.5499 | 0.881 | 0.731 | 0.62
x2 = 0.6001 | 0.932 | 0.777 | 0.648
x2 = 0.65 | 1 | 0.819 | 0.683
x2 = 0.7 | 1.08 | 0.877 | 0.725
x2 = 0.7499 | 1.18 | 0.949 | 0.774
x2 = 0.8 | 1.276 | 1.052 | 0.849
x2 = 0.8499 | 1.467 | 1.154 | 0.915
x2 = 0.9 | 1.681 | 1.305 | 1.021
x2 = 0.95 | 1.983 | 1.507 | 1.16

CCCCN + COC(C)=O
303.15 K, 101 kPa
Conditions | viscosity [mPa·s]
x1 = 0.1441 | 0.4159
x1 = 0.2526 | 0.4351
x1 = 0.35 | 0.4469
x1 = 0.454 | 0.4552
x1 = 0.5721 | 0.458
x1 = 0.686 | 0.4596
x1 = 0.7578 | 0.4709
x1 = 0.8757 | 0.4985

O=[N+]([O-])[O-].[Ag+] + CC#N
298.15 K, 101 kPa
Conditions | viscosity [mPa·s]
x1 = 0.012 | 0.409
x1 = 0.03806 | 0.524
x1 = 0.1017 | 1.046
x1 = 0.2421 | 6.48

CCCCN + CCC(=O)O
viscosity [mPa·s], 101 kPa
Conditions | x2 = 0.2 | x2 = 0.3 | x2 = 0.4 | x2 = 0.5 | x2 = 0.6 | x2 = 0.7 | x2 = 0.75 | x2 = 0.8 | x2 = 0.875
293.15 K | 1.82 | 15.13 | 63.74 | 0.5662 | 178 | 54.56 | 30.14 | 18.72 | 5.08
298.15 K | 1.75 | 12.72 | 51.68 | 0.4002 | 137.5 | 43.2 | 25.03 | 15.68 | 4.48
303.15 K | 1.63 | 10.92 | 41.89 | – | 107.7 | 35.21 | 20.17 | 13 | 4.05
308.15 K | 1.56 | 9.48 | 34.98 | – | 85.1 | 29.21 | 17.49 | 11.15 | 3.57
313.15 K | 1.44 | 8.34 | 29.06 | 176.5 | 71.2 | 24.51 | 15.02 | – | 3.09
313.5 K | – | – | – | – | – | – | – | 9.51 | –
318.15 K | 1.41 | 7.31 | 24.58 | 136.6 | 57.9 | 20.64 | 12.59 | 8.34 | 2.86
323.15 K | – | 6.66 | 21.02 | 112.7 | 47.7 | 17.83 | 11.15 | 7.33 | 2.73

CCCCN + CCCCCCCO
viscosity [mPa·s], 101.33 kPa
Conditions | 303.15 K | 313.15 K | 323.15 K
x1 = 0.0997 | 4.157 | 3.079 | 2.366
x1 = 0.122 | 3.964 | 2.931 | –
x1 = 0.1998 | 3.439 | 2.557 | –
x1 = 0.201 | 3.328 | 2.535 | 1.993
x1 = 0.2914 | 2.866 | 2.134 | –
x1 = 0.3 | 2.671 | 2.069 | 1.627
x1 = 0.4035 | 2.125 | 1.684 | 1.346
x1 = 0.4133 | 2.169 | 1.636 | –
x1 = 0.4897 | 1.797 | 1.363 | –
x1 = 0.5 | 1.669 | 1.336 | 1.094
x1 = 0.6006 | 1.294 | 1.056 | 0.879
x1 = 0.6172 | 1.284 | 0.9879 | –
x1 = 0.7002 | 0.975 | 0.797 | 0.676
x1 = 0.7147 | 0.9851 | 0.7769 | –
x1 = 0.8001 | 0.77 | 0.655 | 0.563
x1 = 0.8091 | 0.761 | 0.6198 | –
x1 = 0.8999 | 0.606 | 0.518 | 0.451
x1 = 0.907 | 0.5793 | 0.4903 | –

CCCCCCCCCC(=O)OCC + CCCO
viscosity [mPa·s], 100 kPa
Conditions | x1 = 0.1002 | x1 = 0.2005 | x1 = 0.2999 | x1 = 0.4 | x1 = 0.4999 | x1 = 0.601 | x1 = 0.7 | x1 = 0.7998 | x1 = 0.9011
293.15 K | 2.031 | 1.963 | 1.956 | 1.986 | 2.013 | 2.057 | 2.123 | 2.176 | 2.25
298.15 K | 1.809 | 1.759 | 1.757 | 1.786 | 1.814 | 1.854 | 1.912 | 1.97 | 2.029
303.15 K | 1.618 | 1.586 | 1.587 | 1.611 | 1.642 | 1.681 | 1.74 | 1.78 | 1.845
308.15 K | 1.456 | 1.433 | 1.438 | 1.461 | 1.493 | 1.53 | 1.578 | 1.623 | 1.681
313.15 K | 1.315 | 1.299 | 1.309 | 1.333 | 1.364 | 1.403 | 1.446 | 1.486 | 1.538
318.15 K | 1.192 | 1.183 | 1.196 | 1.22 | 1.25 | 1.285 | 1.33 | 1.368 | 1.415

CCCCN + CC(C)CO
298.15 K, 101.32 kPa
Conditions | viscosity [mPa·s]
x2 = 0.1005 | 0.5513
x2 = 0.2 | 0.6546
x2 = 0.2984 | 0.7783
x2 = 0.3994 | 0.9361
x2 = 0.4997 | 1.135
x2 = 0.5998 | 1.373
x2 = 0.7007 | 1.674
x2 = 0.8122 | 2.126
x2 = 0.8939 | 2.593

O=C(O)C(Cl)(Cl)Cl + Oc1ccccc1
323.15 K, 101 kPa
Conditions | viscosity [mPa·s]
x2 = 0.1005 | 5.083
x2 = 0.1834 | 5.115
x2 = 0.245 | 5.126
x2 = 0.3305 | 5.085
x2 = 0.4032 | 5.012
x2 = 0.5025 | 4.779
x2 = 0.5925 | 4.683
x2 = 0.6928 | 4.342
x2 = 0.76 | 4.127
x2 = 0.8544 | 3.811
x2 = 0.9117 | 3.569

CCCC(=O)OCC(COC(=O)CCC)OC(=O)CCC + CCO
viscosity [mPa·s], 101.33 kPa
Conditions | x1 = 0.1 | x1 = 0.2 | x1 = 0.3 | x1 = 0.4 | x1 = 0.5 | x1 = 0.6 | x1 = 0.7 | x1 = 0.8 | x1 = 0.9
298 K | 1.59 | 2.22 | 2.92 | 3.63 | 4.38 | 5.15 | 5.97 | 6.78 | 7.71
303 K | 1.44 | 1.98 | 2.58 | 3.19 | 3.81 | 4.48 | 5.14 | 5.82 | 6.58
308 K | 1.31 | 1.78 | 2.29 | 2.81 | 3.35 | 3.91 | 4.48 | 5.04 | 5.67
313 K | 1.21 | 1.61 | 2.06 | 2.51 | 2.97 | 3.43 | 3.92 | 4.4 | 4.92

CCCCN + CCCCCCCCCCO
viscosity [mPa·s], 101.33 kPa
Conditions | x1 = 0.1009 | x1 = 0.1875 | x1 = 0.2926 | x1 = 0.4082 | x1 = 0.4885 | x1 = 0.5888 | x1 = 0.7198 | x1 = 0.8119 | x1 = 0.9029
303.15 K | 7.619 | 6.568 | 5.323 | 4.051 | 3.232 | 2.336 | 1.398 | 0.9303 | 0.6273
313.15 K | 5.926 | 5.059 | 4.058 | 3.072 | 2.462 | 1.813 | 1.151 | 0.8181 | 0.5744

O=C(O)[C@H](O)[C@@H](O)C(=O)O + O
298.2 K, 101.33 kPa
Conditions | viscosity [mPa·s]
x1 = 0.00125 | 0.9157
x1 = 0.002751 | 0.942
x1 = 0.00453 | 0.9725
x1 = 0.00652 | 0.9964
x1 = 0.008655 | 1.043
x1 = 0.01037 | 1.046
x1 = 0.01172 | 1.088

CC(=O)[O-].CCn1cc[n+](CC)c1 + O
viscosity [mPa·s], 100 kPa
Conditions | x2 = 0.09432 | x2 = 0.2079 | x2 = 0.3498 | x2 = 0.453 | x2 = 0.5329
298.15 K | 129.4 | 120.3 | 79.4 | 62.7 | 50.4
323.15 K | 38.2 | 36.6 | 26.3 | 21.5 | 17.9

CCCCN + COCCO
308.15 K, 101 kPa
Conditions | viscosity [mPa·s]
x2 = 0.1234 | 0.5285
x2 = 0.2404 | 0.6274
x2 = 0.3516 | 0.7219
x2 = 0.4576 | 0.8199
x2 = 0.5606 | 0.9142
x2 = 0.6503 | 0.9868
x2 = 0.7471 | 1.048
x2 = 0.8351 | 1.111
x2 = 0.9193 | 1.173
